Measurements: patent publication US9179674B2, “Macrocyclic picolinamide compounds with fungicidal activity” (DOW AGROSCIENCES LLC, priority 2013, dated 2015)
Like-named read-outs stand apart in the source and are kept apart here.

How the values were obtained:
[1] = system: Mycosphaerella graminicola; Anamorph: Septoria tritici; experiment: Leaf Blotch of Wheat fungicidal activity (SEPTTR); format: in vivo; conditions: Zymoseptoria tritici; for pest or weed control at 100 ppm: rate 100 ppm; for pest or weed control at 121.5 g/ha: rate 121.5 g/H
How it was run: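 Acetone solutions diluted with nine volumes of water containing 110 ppm Triton X-100, sprayed to run-off on first-leaf wheat seedlings (Yuma), inoculated with S. tritici before or after treatment. Plants held in dew chambers, then in a 20 °C greenhouse. Disease severity (0–100%) scored when untreated plants fully symptomatic; % control relative to untreated.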

Puccinia triticina = experiment: Wheat Brown Rust fungicidal activity (PUCCRT); format: in vivo; conditions: Puccinia triticina; for pest or weed control at 100 ppm: rate 100 ppm; for pest or weed control at 121.5 g/ha: rate 121.5 g/H
How it was run: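 Yuma wheat seedlings at first-leaf stage sprayed to run-off (acetone solution in water with 110 ppm Triton X-100) or track-sprayed as EC with 0.1% Trycol 5941; inoculated with P. triticina spores before or after treatment. Overnight dark dew at 22° C., then greenhouse 24° C.; disease severity 0–100% gives percent control vs untreated.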

[2] = 24 h, 1 Day Protectant, read-out: Disease control SEPTTR 1DP
[3] = 72 h, 3 Day Curative, read-out: Disease control SEPTTR 3DC
[4] = 24 h, 1 Day Protectant, read-out: Disease control PUCCRT 1DP
[5] = 72 h, 3 Day Curative, read-out: Disease control PUCCRT 3DC

Structure (SMILES)	melting point [°C]	pest or weed control at 100 ppm [1, 2] [%]	pest or weed control at 100 ppm [1, 3] [%]	pest or weed control at 100 ppm (Puccinia triticina; [4]) [%]	pest or weed control at 100 ppm (Puccinia triticina; [5]) [%]	pest or weed control at 121.5 g/ha [1, 2] [%]	pest or weed control at 121.5 g/ha [1, 3] [%]	pest or weed control at 121.5 g/ha (Puccinia triticina; [4]) [%]	pest or weed control at 121.5 g/ha (Puccinia triticina; [5]) [%]
Cc1ccc(C[C@H]2COC[C@H](N)C(=O)O[C@@H](C)[C@@H]2OCC(C)C)cc1.Cl	81 to 84								
COc1ccnc(C(=O)N[C@H]2COC[C@H](Cc3cccc4ccccc34)[C@@H](OC(=O)C(C)C)[C@H](C)OC2=O)c1O [Compound F5, (3S,6S,7R,8S)-3-(3-hydroxy-4-methoxypicolin-amido)-6-methyl-8-(naphthalen-1-ylmethyl)-4-oxo-1,5-dioxonan-7-yl isobutyrate]	139 to 142	80 to 100	0 to 80	0 to 80	0 to 80				
CCCCCO[C@@H]1[C@@H](Cc2ccc(C(F)(F)F)cc2)COC[C@H](NC(=O)c2nccc(OC)c2OCOC(C)=O)C(=O)O[C@H]1C [Compound F103]		80 to 100	0 to 80	80 to 100	80 to 100				
COc1ccnc(C(=O)N[C@H]2COC[C@H](CC(F)(F)F)[C@@H](OCC(C)C)[C@H](C)OC2=O)c1OCOC(C)=O [Compound F104]		80 to 100	80 to 100	80 to 100	80 to 100	80 to 100	80 to 100	80 to 100	80 to 100
COc1ccnc(C(=O)N[C@H]2COC[C@H](CC3CCCC3)[C@@H](OCC(C)C)[C@H](C)OC2=O)c1OCOC(C)=O [Compound F115]		80 to 100	80 to 100	80 to 100	80 to 100	80 to 100	80 to 100	80 to 100	80 to 100
CCCCCO[C@@H]1[C@@H](CC2CCCC2)COC[C@H](NC(=O)c2nccc(OC)c2OCOC(C)=O)C(=O)O[C@H]1C [Compound F116]		80 to 100	80 to 100	80 to 100	80 to 100	80 to 100	80 to 100	80 to 100	80 to 100
COc1ccnc(C(=O)N[C@H]2COC[C@H](CCc3ccccc3)[C@@H](OC(=O)C3CC3)[C@H](C)OC2=O)c1OCOC(=O)C(C)C [Compound F118]		80 to 100	80 to 100	80 to 100	80 to 100	80 to 100	80 to 100	80 to 100	80 to 100
CCCO[C@@H]1[C@@H](Cc2ccc(C(F)(F)F)cc2)COC[C@H](NC(=O)c2nccc(OC)c2OCOC(=O)COCC)C(=O)O[C@H]1C [Compound F120, ((4-methoxy-2-(((3S,7S,8R,9S)-9-methyl-2-oxo-8-propoxy-7-(4-(trifluoromethyl)benzyl)-1,5-dioxonan-3-yl)carbamoyl)pyridin-3-yl)oxy)methyl 2-ethoxyacetate]		80 to 100	80 to 100	80 to 100	0 to 80				
CCOCC(=O)OCOc1c(OC)ccnc1C(=O)N[C@H]1COC[C@H](CC2CCCC2)[C@@H](OC(=O)C(C)C)[C@H](C)OC1=O [Compound F121]		80 to 100	80 to 100	80 to 100	80 to 100	80 to 100	80 to 100	80 to 100	80 to 100
CC(C)C(=O)O[C@@H]1[C@@H](Cc2cccc3ccccc23)COC[C@H](N(C(=O)OC(C)(C)C)C(=O)OC(C)(C)C)C(=O)O[C@H]1C [Compound F128, [(3S,6S,7R,8S)-3-[bis(tert-butoxycarbonyl)amino]-6-methyl-8-(1-naphthylmethyl)-4-oxo-1,5-dioxonan-7-yl]2-methylpropanoate]	130 to 132								
C[C@@H]1OC(=O)[C@@H](N(C(=O)OC(C)(C)C)C(=O)OC(C)(C)C)COC[C@H](Cc2cccc3ccccc23)[C@H]1OC1CCCC1 [Compound F132, tert-butyl N-tert-butoxycarbonyl-N-[(3S,7S,8R,9S)-8-(cyclopentoxy)-9-methyl-7-(1-naphthylmethyl)-2-oxo-1,5-dioxonan-3-yl]carbamate]	49 to 55								
CCCCCO[C@@H]1[C@@H](Cc2ccc(C)cc2)COC[C@H](N(C(=O)OC(C)(C)C)C(=O)OC(C)(C)C)C(=O)O[C@H]1C [Compound F134]	100 to 103								

Continued, in another order:

melting point [°C]	Structure (SMILES)	pest or weed control at 100 ppm [1, 2] [%]	pest or weed control at 100 ppm [1, 3] [%]	pest or weed control at 100 ppm (Puccinia triticina; [4]) [%]	pest or weed control at 100 ppm (Puccinia triticina; [5]) [%]	pest or weed control at 121.5 g/ha [1, 2] [%]	pest or weed control at 121.5 g/ha [1, 3] [%]	pest or weed control at 121.5 g/ha (Puccinia triticina; [4]) [%]	pest or weed control at 121.5 g/ha (Puccinia triticina; [5]) [%]
51 to 58	COc1ccnc(C(=O)N[C@H]2COC[C@H](CCc3ccccc3)[C@@H](OC3CCCC3)[C@H](C)OC2=O)c1O [Compound F1]	80 to 100	0 to 80	80 to 100	80 to 100				
78 to 81	COc1ccnc(C(=O)N[C@H]2COC[C@H](CCc3ccccc3)[C@@H](OCCCC(F)(F)F)[C@H](C)OC2=O)c1O [Compound F2]	80 to 100	80 to 100	80 to 100	0 to 80				
96 to 98	CCCCCO[C@@H]1[C@@H](CCc2ccccc2)COC[C@H](NC(=O)c2nccc(OC)c2O)C(=O)O[C@H]1C [Compound F3]	80 to 100	80 to 100	80 to 100	80 to 100				
117 to 120	COc1ccnc(C(=O)N[C@H]2COC[C@H](CCc3ccccc3)[C@@H](OCC(C)C)[C@H](C)OC2=O)c1O [Compound F4]	80 to 100	80 to 100	80 to 100	80 to 100				
118 to 122	COc1ccnc(C(=O)N[C@H]2COC[C@H](Cc3cccc4ccccc34)[C@@H](OCCCC(F)(F)F)[C@H](C)OC2=O)c1O [Compound F6]	80 to 100	0 to 80	0 to 80					
116 to 120	CCCCCO[C@@H]1[C@@H](Cc2cccc3ccccc23)COC[C@H](NC(=O)c2nccc(OC)c2O)C(=O)O[C@H]1C [Compound F7]	80 to 100	0 to 80	80 to 100	0 to 80				
94 to 98	COc1ccnc(C(=O)N[C@H]2COC[C@H](Cc3cccc4ccccc34)[C@@H](Oc3ccc(C)cc3)[C@H](C)OC2=O)c1O [Compound F8]	80 to 100	0 to 80	80 to 100	0 to 80				
78 to 85	COc1ccnc(C(=O)N[C@H]2COC[C@H](Cc3cccc4ccccc34)[C@@H](OC3CCCC3)[C@H](C)OC2=O)c1O [Compound F9]	80 to 100	80 to 100	80 to 100					
78 to 80	COc1ccnc(C(=O)N[C@H]2COC[C@H](Cc3cccc4ccccc34)[C@@H](OCC(C)C)[C@H](C)OC2=O)c1O [Compound F10]	80 to 100	0 to 80	80 to 100					
97 to 99	CCCCCO[C@@H]1[C@@H](Cc2ccc(C)cc2)COC[C@H](NC(=O)c2nccc(OC)c2O)C(=O)O[C@H]1C [Compound F11]	80 to 100	80 to 100	80 to 100	0 to 80				
67 to 72	COc1ccnc(C(=O)N[C@H]2COC[C@H](Cc3ccc(C)cc3)[C@@H](OC(=O)C(C)C)[C@H](C)OC2=O)c1O [Compound F12]	80 to 100	80 to 100	80 to 100	80 to 100				
81 to 85	COc1ccnc(C(=O)N[C@H]2COC[C@H](Cc3ccc(Cl)cc3Cl)[C@@H](Oc3ccc(C)cc3)[C@H](C)OC2=O)c1O [Compound F44]			80 to 100					
70 to 74	COc1ccnc(C(=O)N[C@H]2COC[C@H](Cc3ccc(Cl)cc3Cl)[C@@H](Oc3ccc(C)cc3)[C@H](C)OC2=O)c1OCOC(C)=O [Compound F113]							80 to 100	
57 to 63	CC(C)CO[C@@H]1[C@@H](Cc2cccc3ccccc23)COC[C@H](N(C(=O)OC(C)(C)C)C(=O)OC(C)(C)C)C(=O)O[C@H]1C [Compound F133]								
131 to 133	C[C@@H]1OC(=O)[C@@H](N(C(=O)OC(C)(C)C)C(=O)OC(C)(C)C)COC[C@H](Cc2ccc(F)cc2)[C@H]1OC(=O)C1CC1 [Compound F136]								
